Test results from patent US20230085307A1, “PYRIDAZINONE COMPOUND AND HERBICIDE” (NISSAN CHEMICAL CORPORATION, priority 2019, published 2023).

What was measured:
rice flat sedge = test: Test Example 3: herbicidal effect by foliage application, Wagner pot (Table 18, symbol E); format: in vivo, rice flat sedge (Cyperus iria); conditions: for herbicidal effect on E: rice flat sedge: amount of applied herbicide 320 g/ha
Outline: (§1)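 Plants were sown in alluvial soil held under 0.1–0.5 cm standing water and grown 14 days in a greenhouse at 25–30 °C. An emulsifiable formulation, water-diluted to the set dose, was then sprayed onto the foliage, and effects were scored three weeks later using previously defined criteria.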

windgrass [1] = test: Test Example 5: herbicidal effect by foliage application, plastic box (Table 20, symbol L); format: in vivo, windgrass (Apera spica-venti); conditions: foliage application, 320 g/ha, three weeks after application
Outline: (§2)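 Post-emergence foliar test in sterilized diluvial soil. Compound applied as water-diluted emulsion at a predetermined rate to 14-day-old plants; evaluation at three weeks.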

southern crabgrass [2] = test: Test Example 4: herbicidal effect by soil treatment (Table 19, symbol F); format: in vivo, southern crabgrass (Digitaria ciliaris); conditions: amount of applied herbicide 320 g/ha
Outline: (§3)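 Emulsion of test compound, water-diluted to predetermined amount, sprayed on soil after sowing (seed depth ~1.5 cm, sterilized diluvial soil). Greenhouse, 25–30° C. Effect graded at three weeks post-spray.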

chickweed [3] = test: Test Example 5: herbicidal effect by foliage application, plastic box (Table 20, symbol P); format: in vivo, common chickweed (Stellaria media); conditions: foliage application, 320 g/ha, three weeks after application
Outline: as §2

wild oat [4] = test: Test Example 4: herbicidal effect by soil treatment (Table 19, symbol I); format: in vivo, wild oat (Avena fatua); conditions: amount of applied herbicide 320 g/ha
Outline: as §3

windgrass [5] = test: Test Example 4: herbicidal effect by soil treatment (Table 19, symbol L); format: in vivo, windgrass (Apera spica-venti); conditions: amount of applied herbicide 320 g/ha
Outline: as §3

wild oat [6] = test: Test Example 5: herbicidal effect by foliage application, plastic box (Table 20, symbol I); format: in vivo, wild oat (Avena fatua); conditions: foliage application, 320 g/ha, three weeks after application
Outline: as §2

barnyard grass [7] = test: Test Example 5: herbicidal effect by foliage application, plastic box (Table 20, symbol H); format: in vivo, barnyard grass (Echinochloa crus-galli); conditions: foliage application, 320 g/ha, three weeks after application
Outline: as §2

persian speedwell [8] = test: Test Example 4: herbicidal effect by soil treatment (Table 19, symbol R); format: in vivo, Persian speedwell (Veronica persica); conditions: amount of applied herbicide 320 g/ha
Outline: as §3

Chinese sprangletop = test: Test Example 3: herbicidal effect by foliage application, Wagner pot (Table 18, symbol D); format: in vivo, chinese sprangletop (Leptochloa chinensis); conditions: for herbicidal effect on D: Chinese sprangletop: amount of applied herbicide 320 g/ha
Outline: as §1

blackgrass [9] = test: Test Example 4: herbicidal effect by soil treatment (Table 19, symbol J); format: in vivo, blackgrass (Alopecurus myosuroides); conditions: amount of applied herbicide 320 g/ha
Outline: as §3

green foxtail [10] = test: Test Example 5: herbicidal effect by foliage application, plastic box (Table 20, symbol G); format: in vivo, green foxtail (Setaria viridis); conditions: foliage application, 320 g/ha, three weeks after application
Outline: as §2

lambsquarters [11] = test: Test Example 4: herbicidal effect by soil treatment (Table 19, symbol O); format: in vivo, lambsquarters (Chenopodium album); conditions: amount of applied herbicide 320 g/ha
Outline: as §3

barnyard grass [12] = test: Test Example 3: herbicidal effect by foliage application, Wagner pot (Table 18, symbol H); format: in vivo, barnyard grass (Echinochloa crus-galli); conditions: for herbicidal effect on H: barnyard grass: amount of applied herbicide 320 g/ha
Outline: as §1

barnyard grass [13] = test: Test Example 4: herbicidal effect by soil treatment (Table 19, symbol H); format: in vivo, barnyard grass (Echinochloa crus-galli); conditions: amount of applied herbicide 320 g/ha
Outline: as §3

lambsquarters [14] = test: Test Example 5: herbicidal effect by foliage application, plastic box (Table 20, symbol O); format: in vivo, lambsquarters (Chenopodium album); conditions: foliage application, 320 g/ha, three weeks after application
Outline: as §2

blackgrass [15] = test: Test Example 5: herbicidal effect by foliage application, plastic box (Table 20, symbol J); format: in vivo, blackgrass (Alopecurus myosuroides); conditions: foliage application, 320 g/ha, three weeks after application
Outline: as §2

southern crabgrass [16] = test: Test Example 5: herbicidal effect by foliage application, plastic box (Table 20, symbol F); format: in vivo, southern crabgrass (Digitaria ciliaris); conditions: foliage application, 320 g/ha, three weeks after application
Outline: as §2

redroot pigweed [17] = test: Test Example 5: herbicidal effect by foliage application, plastic box (Table 20, symbol N); format: in vivo, redroot pigweed (Amaranthus retroflexus); conditions: foliage application, 320 g/ha, three weeks after application
Outline: as §2

velvetleaf [18] = test: Test Example 5: herbicidal effect by foliage application, plastic box (Table 20, symbol M); format: in vivo, velvetleaf (Abutilon theophrasti); conditions: foliage application, 320 g/ha, three weeks after application
Outline: as §2

green foxtail [19] = test: Test Example 4: herbicidal effect by soil treatment (Table 19, symbol G); format: in vivo, green foxtail (Setaria viridis); conditions: amount of applied herbicide 320 g/ha
Outline: as §3

chickweed [20] = test: Test Example 4: herbicidal effect by soil treatment (Table 19, symbol P); format: in vivo, common chickweed (Stellaria media); conditions: amount of applied herbicide 320 g/ha
Outline: as §3

Italian ryegrass [21] = test: Test Example 5: herbicidal effect by foliage application, plastic box (Table 20, symbol K); format: in vivo, Italian ryegrass (Lolium multiflorum); conditions: foliage application, 320 g/ha, three weeks after application
Outline: as §2

Italian ryegrass [22] = test: Test Example 4: herbicidal effect by soil treatment (Table 19, symbol K); format: in vivo, Italian ryegrass (Lolium multiflorum); conditions: amount of applied herbicide 320 g/ha
Outline: as §3

redroot pigweed [23] = test: Test Example 4: herbicidal effect by soil treatment (Table 19, symbol N); format: in vivo, redroot pigweed (Amaranthus retroflexus); conditions: amount of applied herbicide 320 g/ha
Outline: as §3

persian speedwell [24] = test: Test Example 5: herbicidal effect by foliage application, plastic box (Table 20, symbol R); format: in vivo, Persian speedwell (Veronica persica); conditions: foliage application, 320 g/ha, three weeks after application
Outline: as §2

velvetleaf [25] = test: Test Example 4: herbicidal effect by soil treatment (Table 19, symbol M); format: in vivo, velvetleaf (Abutilon theophrasti); conditions: amount of applied herbicide 320 g/ha
Outline: as §3

| Compound | herbicidal effect on E: rice flat sedge (rice flat sedge) | L: windgrass, herbicidal effect grade (windgrass [1]) | P: chickweed, herbicidal effect grade (chickweed [3]) | I: wild oat, herbicidal effect grade (wild oat [6]) | H: barnyard grass, herbicidal effect grade (barnyard grass [7]) | herbicidal effect on D: Chinese sprangletop (Chinese sprangletop) | G: green foxtail, herbicidal effect grade (green foxtail [10]) | herbicidal effect on H: barnyard grass (barnyard grass [12]) | O: lambsquarters, herbicidal effect grade (lambsquarters [14]) | J: blackgrass, herbicidal effect grade (blackgrass [15]) | F: southern crabgrass, herbicidal effect grade (southern crabgrass [16]) | N: redroot pigweed, herbicidal effect grade (redroot pigweed [17]) | M: velvetleaf, herbicidal effect grade (velvetleaf [18]) | K: Italian ryegrass, herbicidal effect grade (Italian ryegrass [21]) | R: persian speedwell, herbicidal effect grade (persian speedwell [24]) | F: southern crabgrass, herbicidal effect grade (southern crabgrass [2]) | I: wild oat, herbicidal effect grade (wild oat [4]) | L: windgrass, herbicidal effect grade (windgrass [5]) | R: persian speedwell, herbicidal effect grade (persian speedwell [8]) | J: blackgrass, herbicidal effect grade (blackgrass [9]) | also measured |
| --- | --- | --- | --- | --- | --- | --- | --- | --- | --- | --- | --- | --- | --- | --- | --- | --- | --- | --- | --- | --- | --- |
| CCc1nn(C)c(=O)c(-c2c(-c3ccc(OC(F)(F)F)cc3)sc3ccc(F)cc23)c1O [2-412] | 4 (Herbicidal rate of 70% or more and less than 90%) | 1 (Herbicidal rate of 5% or more and less than 20%) | 5 (Herbicidal rate of 90% or more (almost completely withered)) | 0 (Herbicidal rate of 5% or less (almost no effect)) | 4 (Herbicidal rate of 70% or more and less than 90%) | 0 (Herbicidal rate of 5% or less (almost no effect)) | 4 (Herbicidal rate of 70% or more and less than 90%) | 4 (Herbicidal rate of 70% or more and less than 90%) | 5 (Herbicidal rate of 90% or more (almost completely withered)) | 0 (Herbicidal rate of 5% or less (almost no effect)) | 3 (Herbicidal rate of 40% or more and less than 70%) | 5 (Herbicidal rate of 90% or more (almost completely withered)) | 3 (Herbicidal rate of 40% or more and less than 70%) | 3 (Herbicidal rate of 40% or more and less than 70%) | 5 (Herbicidal rate of 90% or more (almost completely withered)) |  |  |  |  |  | herbicidal effect, F: southern crabgrass (southern crabgrass [2]): 0 (Herbicidal rate of 5% or less (almost no effect)); herbicidal effect, I: wild oat (wild oat [4]): 0 (Herbicidal rate of 5% or less (almost no effect)); herbicidal effect, L: windgrass (windgrass [5]): 0 (Herbicidal rate of 5% or less (almost no effect)); herbicidal effect, R: persian speedwell (persian speedwell [8]): 3 (Herbicidal rate of 40% or more and less than 70%); herbicidal effect, J: blackgrass (blackgrass [9]): 0 (Herbicidal rate of 5% or less (almost no effect)); herbicidal effect, O: lambsquarters (lambsquarters [11]): 1 (Herbicidal rate of 5% or more and less than 20%); herbicidal effect, H: barnyard grass (barnyard grass [13]): 0 (Herbicidal rate of 5% or less (almost no effect)); herbicidal effect, G: green foxtail (green foxtail [19]): 0 (Herbicidal rate of 5% or less (almost no effect)); herbicidal effect, P: chickweed (chickweed [20]): 0 (Herbicidal rate of 5% or less (almost no effect)); herbicidal effect, K: Italian ryegrass (Italian ryegrass [22]): 0 (Herbicidal rate of 5% or less (almost no effect)); herbicidal effect, N: redroot pigweed (redroot pigweed [23]): 2 (Herbicidal rate of 20% or more and less than 40%); herbicidal effect, M: velvetleaf (velvetleaf [25]): 0 (Herbicidal rate of 5% or less (almost no effect)) |
| Cc1nn(C)c(=O)c(-c2c(-c3ccc(Cl)cc3)sc3cc(Cl)ccc23)c1O [3-033] | 5 (Herbicidal rate of 90% or more (almost completely withered)) | 4 (Herbicidal rate of 70% or more and less than 90%) | 5 (Herbicidal rate of 90% or more (almost completely withered)) | 4 (Herbicidal rate of 70% or more and less than 90%) | 4 (Herbicidal rate of 70% or more and less than 90%) | 3 (Herbicidal rate of 40% or more and less than 70%) | 5 (Herbicidal rate of 90% or more (almost completely withered)) | 4 (Herbicidal rate of 70% or more and less than 90%) | 4 (Herbicidal rate of 70% or more and less than 90%) | 4 (Herbicidal rate of 70% or more and less than 90%) | 3 (Herbicidal rate of 40% or more and less than 70%) | 5 (Herbicidal rate of 90% or more (almost completely withered)) | 4 (Herbicidal rate of 70% or more and less than 90%) | 4 (Herbicidal rate of 70% or more and less than 90%) | 5 (Herbicidal rate of 90% or more (almost completely withered)) | 0 (Herbicidal rate of 5% or less (almost no effect)) | 0 (Herbicidal rate of 5% or less (almost no effect)) | 3 (Herbicidal rate of 40% or more and less than 70%) | 3 (Herbicidal rate of 40% or more and less than 70%) | 0 (Herbicidal rate of 5% or less (almost no effect)) | O: lambsquarters, herbicidal effect grade (lambsquarters [11]): 3 (Herbicidal rate of 40% or more and less than 70%); H: barnyard grass, herbicidal effect grade (barnyard grass [13]): 0 (Herbicidal rate of 5% or less (almost no effect)); G: green foxtail, herbicidal effect grade (green foxtail [19]): 0 (Herbicidal rate of 5% or less (almost no effect)); P: chickweed, herbicidal effect grade (chickweed [20]): 2 (Herbicidal rate of 20% or more and less than 40%); K: Italian ryegrass, herbicidal effect grade (Italian ryegrass [22]): 4 (Herbicidal rate of 70% or more and less than 90%); N: redroot pigweed, herbicidal effect grade (redroot pigweed [23]): 4 (Herbicidal rate of 70% or more and less than 90%); M: velvetleaf, herbicidal effect grade (velvetleaf [25]): 0 (Herbicidal rate of 5% or less (almost no effect)) |
| CCCC(=O)Oc1c(C)nn(C)c(=O)c1-c1c(-c2ccccc2OC)sc2cc(Cl)ccc12 [3-036] |  | 0 (Herbicidal rate of 5% or less (almost no effect)) | 5 (Herbicidal rate of 90% or more (almost completely withered)) | 1 (Herbicidal rate of 5% or more and less than 20%) | 5 (Herbicidal rate of 90% or more (almost completely withered)) |  | 3 (Herbicidal rate of 40% or more and less than 70%) |  | 3 (Herbicidal rate of 40% or more and less than 70%) | 0 (Herbicidal rate of 5% or less (almost no effect)) | 1 (Herbicidal rate of 5% or more and less than 20%) | 5 (Herbicidal rate of 90% or more (almost completely withered)) | 4 (Herbicidal rate of 70% or more and less than 90%) | 0 (Herbicidal rate of 5% or less (almost no effect)) | 5 (Herbicidal rate of 90% or more (almost completely withered)) | 1 (Herbicidal rate of 5% or more and less than 20%) | 0 (Herbicidal rate of 5% or less (almost no effect)) | 3 (Herbicidal rate of 40% or more and less than 70%) | 3 (Herbicidal rate of 40% or more and less than 70%) | 0 (Herbicidal rate of 5% or less (almost no effect)) | herbicidal effect on rice flat sedge (E) (rice flat sedge; 320 g/ha): 4 (Herbicidal rate of 70% or more and less than 90%); herbicidal effect on Chinese sprangletop (D) (Chinese sprangletop; 320 g/ha): 0 (Herbicidal rate of 5% or less (almost no effect)); O: lambsquarters, herbicidal effect grade (lambsquarters [11]): 3 (Herbicidal rate of 40% or more and less than 70%); herbicidal effect on barnyard grass (H) (barnyard grass [12]; 320 g/ha): 5 (Herbicidal rate of 90% or more (almost completely withered)); H: barnyard grass, herbicidal effect grade (barnyard grass [13]): 3 (Herbicidal rate of 40% or more and less than 70%); G: green foxtail, herbicidal effect grade (green foxtail [19]): 2 (Herbicidal rate of 20% or more and less than 40%); P: chickweed, herbicidal effect grade (chickweed [20]): 3 (Herbicidal rate of 40% or more and less than 70%); K: Italian ryegrass, herbicidal effect grade (Italian ryegrass [22]): 0 (Herbicidal rate of 5% or less (almost no effect)); N: redroot pigweed, herbicidal effect grade (redroot pigweed [23]): 5 (Herbicidal rate of 90% or more (almost completely withered)); M: velvetleaf, herbicidal effect grade (velvetleaf [25]): 2 (Herbicidal rate of 20% or more and less than 40%) |
